Test results: patent US10471046B2, “Method for treating, preventing, or reducing the risk of skin infection” (Melinta Subsidiary Corp., priority 2014, dated 2019)
In brackets after ≈: the same amount, converted by molar mass.

tested on: S. aureus; assay: Minimum inhibitory concentrations (MICs) for S. aureus of exemplary compounds (Table 2); assay type: cell-based; conditions: Staphylococcus aureus, minimum inhibitory concentrations for S. aureus; read-out: MICs
Outline: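 Growth of S. aureus in media with or without compound, by broth microdilution in microtiter trays following NCCLS M7-A5 guidelines. Values are MICs in μg/mL.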

SMILES	MIC [µg/mL]
CC(=O)NC[C@H]1CN(c2ccc(-c3ccc(Cn4nccn4)cc3)c(F)c2)C(=O)O1 [Compound 1023, N-[3-(2-Fluoro-4′-[1,2,3]triazol-2-ylmethyl-biphenyl-4-yl)-2-oxo-oxazolidin-5-(S)-ylmethyl]-acetamide]	0.25 (≈ 0.611 µM)
CC(=O)NC[C@H]1CN(c2ccc(-c3ccc(CNCc4cnc[nH]4)cc3)c(F)c2)C(=O)O1 [Compound 4066, N-[3-(2-Fluoro-4′-{[(3H-imidazol-4-ylmethyl)-amino]-methyl}-biphenyl-4-yl)-2-oxo-oxazolidin-5-(S)-ylmethyl]-acetamide]	8 (≈ 18.3 µM)
CC(=O)NC[C@H]1CN(c2ccc(-c3ccc(CN[C@H]4CCCNC4=O)cc3)c(F)c2)C(=O)O1 [Compound 2059, N-(3-{2-Fluoro-4′-[(2-oxo-piperidin-3-(S)-ylamino)-methyl]-biphenyl-4-yl}-2-oxo-oxazolidin-5-(S)-ylmethyl)-acetamide]	2 (≈ 4.4 µM)
CC(=O)NC[C@H]1CN(c2ccc(-c3ccc(CNC(=O)c4cccc(S(C)(=O)=O)c4)cc3)c(F)c2)C(=O)O1 [Compound 4012, N-{4′-[5-(S)-(Acetylamino-methyl)-2-oxo-oxazolidin-3-yl]-2′-fluoro-biphenyl-4-ylmethyl}-3-methanesulfonyl-benzamide]	4 (≈ 7.41 µM)
CC(=O)NC[C@H]1CN(c2ccc(-c3ccc(C(C)NCc4nccs4)cc3)c(F)c2)C(=O)O1 (mixture of isomers) [Compound 4145, N-[3-(2-Fluoro-4′-{1-(R/S)-[(thiazol-2-ylmethyl)-amino]-ethyl}-biphenyl-4-yl)-2-oxo-oxazolidin-5-(S)-ylmethyl]-acetamide]	2
CC(=O)NC[C@H]1CN(c2ccc(-c3ccc(Cn4cnc5c(N)ncnc54)cc3)c(F)c2)C(=O)O1 [Compound 1110, N-{3-[4′-(6-Amino-purin-9-ylmethyl)-2-fluoro-biphenyl-4-yl]-2-oxo-oxazolidin-5-(S)-ylmethyl}-acetamide]	1 (≈ 2.1 µM)
CC(=O)NC[C@H]1CN(c2ccc(-c3ccc(C(=O)NCCc4scnc4C)cc3)c(F)c2)C(=O)O1 [Compound 4112, 4′-[5-(S)-(Acetylamino-methyl)-2-oxo-oxazolidin-3-yl]-2′-fluoro-biphenyl-4-carboxylic acid [2-(4-methyl-thiazol-5-yl)-ethyl]-amide]	0.25 (≈ 0.503 µM)

Continued by falling MIC, values first:

MIC [µg/mL]	SMILES
128 (≈ 199 µM)	CC(=O)NC[C@H]1CN(c2ccc(-c3ccc(CNC(=O)[C@@H](Cc4c[nH]c5ccccc45)NC(=O)OC(C)(C)C)cc3)c(F)c2)C(=O)O1 [Compound 4308, [1-(R)-({4′-[5-(S)-(Acetylamino-methyl)-2-oxo-oxazolidin-3-yl]-2′-fluoro-biphenyl-4-ylmethyl}-carbamoyl)-2-(1H-indol-3-yl)-ethyl]-carbamic acid tert-butyl ester]
4 (≈ 7.3 µM)	CC(=O)NC[C@H]1CN(c2ccc(-c3ccc(CN(Cc4[nH]nnc4C)Cc4[nH]nnc4C)cc3)c(F)c2)C(=O)O1 [Compound 4270, N-[3-(4′-{[Bis-(5-methyl-3H-[1,2,3]triazol-4-ylmethyl)-amino]-methyl}-2-fluoro-biphenyl-4-yl)-2-oxo-oxazolidin-5-(S)-ylmethyl]-acetamide]
4 (≈ 8.26 µM)	CC(=O)NC[C@H]1CN(c2ccc(-c3ccc(CNCC(=O)N4CCOCC4)cc3)c(F)c2)C(=O)O1 [Compound 4316, N-(3-{2-Fluoro-4′-[(2-morpholin-4-yl-2-oxo-ethylamino)-methyl]-biphenyl-4-yl}-2-oxo-oxazolidin-5-(S)-ylmethyl)-acetamide]
2 (≈ 4.29 µM)	CC(=O)NC[C@H]1CN(c2ccc(-c3ccc(CNCc4ccncc4F)cc3)c(F)c2)C(=O)O1 [Compound 4179, N-[3-(2-Fluoro-4′-{[(3-fluoro-pyridin-4-ylmethyl)-amino]-methyl}-biphenyl-4-yl)-2-oxo-oxazolidin-5-(S)-ylmethyl]-acetamide]
1 (≈ 1.9 µM)	CC(=O)NC[C@H]1CN(c2ccc(-c3ccc(CNCc4ccc(Br)nc4)cc3)c(F)c2)C(=O)O1 [Compound 4181, N-[3-(4′-{[(6-Bromo-pyridin-3-ylmethyl)-amino]-methyl}-2-fluoro-biphenyl-4-yl)-2-oxo-oxazolidin-5-(S)-ylmethyl]-acetamide]
